From PubChem BioAssay AID504655 (Southern Research Specialized Biocontainment Screening …, 2011)
Calls of active or inactive are those of the source. No rule for the calls is given here.

Tested on: HEp-2 cells, RSV CPE inhibition, cell viability
Assay: inhibitors of RSV cytopathic effect, dose response, cell-based, HEp-2, synthesized compounds, set 7 (AID 504655)

Structure (SMILES)	IC50
O=C(NCc1ccc(Cl)cc1)C1CCN(S(=O)(=O)c2cccc3nonc23)CC1	> 50 µM (inactive)
Cc1ccc(Cl)cc1NC(=O)[C@@H]1CCCN1S(=O)(=O)c1cccc2cccnc12	6.11 µM
COc1ccc(C)c(NC(=O)[C@@H]2CCCN2S(=O)(=O)c2cccc3cccnc23)c1	9.33 µM
Cc1ccc(Cn2c(=O)n(Cc3ccc(C(=O)NC4CCCCC4)cc3)c(=O)c3ccccc32)cc1	> 50 µM (inactive)
Cc1ccc(Cn2c(=O)n(Cc3ccc(C(=O)N(C)C)cc3)c(=O)c3ccccc32)cc1	> 50 µM (inactive)
Cc1ccc(Cn2c(=O)n(Cc3ccc(C(=O)N4CCOCC4)cc3)c(=O)c3ccccc32)cc1	> 50 µM (inactive)
Cc1ccc(Cn2c(=O)n(Cc3ccc(C(=O)N4CCCC4)cc3)c(=O)c3ccccc32)cc1	> 50 µM (inactive)
COCCCNC(=O)c1ccc(Cn2c(=O)c3ccc(OC)cc3n(Cc3ccc(C)cc3)c2=O)cc1	> 50 µM (inactive)
Cc1ccc(Cn2c(=O)n(Cc3ccc(C(=O)NCc4ccccc4)cc3)c(=O)c3ccccc32)cc1	> 50 µM (inactive)
Cc1ccc(NC(=O)[C@@H]2CCCN2S(=O)(=O)c2cccc3nonc23)c(C)c1	> 50 µM (inactive)
Cc1ccc(Cn2c(=O)n(Cc3ccc(C(=O)Nc4ccccc4)cc3)c(=O)c3ccccc32)cc1	> 50 µM (inactive)
COCCNC(=O)c1ccc(Cn2c(=O)c3ccccc3n(Cc3ccc(C)cc3)c2=O)cc1	3.05 µM
COCCCNC(=O)c1ccc(Cn2c(=O)c3ccc(C(F)(F)F)cc3n(Cc3ccc(C)cc3)c2=O)cc1	> 50 µM (inactive)
Cc1ccc(CNC(=O)C2CCN(S(=O)(=O)c3cccc4nonc34)CC2)c(C)c1	> 50 µM (inactive)
COc1ccccc1NC(=O)[C@@H]1CCCN1S(=O)(=O)c1cccc2nonc12	> 50 µM (inactive)
COc1ccccc1CNC(=O)[C@@H]1CCCN1S(=O)(=O)c1cccc2nonc12	> 50 µM (inactive)
CNC(=O)c1ccc(Cn2c(=O)c3ccccc3n(Cc3ccc(C)cc3)c2=O)cc1	2.26 µM
COCCCNC(=O)c1ccc(Cn2c(=O)c3ccc(C)cc3n(Cc3ccc(C)cc3)c2=O)cc1	> 50 µM (inactive)
O=C(NCc1cccc(Cl)c1)C1CCN(S(=O)(=O)c2cccc3nonc23)CC1	> 50 µM (inactive)
Cc1ccc(Cn2c(=O)n(Cc3ccc(C(=O)N4CCCCC4)cc3)c(=O)c3ccccc32)cc1	> 50 µM (inactive)
